This passage reports IC50 results from patent US20100075957A1, “AMINODIHYDROTHIAZINE DERIVATIVES SUBSTITUTED WITH A CYCLIC GROUP” (SHIONOGI & CO., LTD., priority 2007, published 2010).

pIC50: −log10 of the molar value. Bounds are passed on as bounds.

The target in the first experiment is T1, Recombinant human BACE-1 (Homo sapiens, UniProt P56817).
T1 construct: purchased R&D Systems
T1 sequence (P56817 46-501): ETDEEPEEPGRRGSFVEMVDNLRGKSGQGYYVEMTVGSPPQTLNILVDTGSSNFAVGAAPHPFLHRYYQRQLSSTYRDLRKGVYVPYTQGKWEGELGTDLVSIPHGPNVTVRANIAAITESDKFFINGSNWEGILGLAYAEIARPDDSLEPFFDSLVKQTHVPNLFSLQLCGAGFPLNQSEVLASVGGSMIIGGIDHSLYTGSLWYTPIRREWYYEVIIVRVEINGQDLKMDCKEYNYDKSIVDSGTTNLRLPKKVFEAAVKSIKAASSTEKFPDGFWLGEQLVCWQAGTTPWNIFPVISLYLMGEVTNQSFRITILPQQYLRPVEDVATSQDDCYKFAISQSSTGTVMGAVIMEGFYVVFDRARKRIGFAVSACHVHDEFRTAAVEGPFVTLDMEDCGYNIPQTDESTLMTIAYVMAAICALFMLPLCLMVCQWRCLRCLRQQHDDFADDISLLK
As to the kind of experiment: Assay of β-secretase-inhibiting activity.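 Also: substrate is a peptide carrying biotin and europium cryptate, after the enzyme reaction, Streptavidin-XL665 is added and incubated 1 h at 30 °C before fluorescence reading.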 The conditions noted are these: Recombinant human BACE-1 7.4 nM, substrate peptide 18 nM, pH 5.0, 30° C., 3 hours; Table 140; read-out: IC50. It counts as biochemical.
With `C[C@@]1(c2cc(NC(=O)c3ncc(O)cc3F)ccc2F)CCSC(N)=N1` [Compound 491], the pIC50 was 7.05. As for `Cn1cc(-c2cnc(C(=O)Nc3ccc(F)c([C@]4(C)CCSC(N)=N4)c3)cn2)cn1` [Compound 494], the pIC50 is 7.52. Same read-out and setting: as for `Cc1nc(Br)sc1C(=O)Nc1cncc([C@]2(C)CCSC(N)=N2)c1` [Compound 497], the figure is 7.05; as for `C[C@@]1(c2cc(NC(=O)c3cn4ccccc4n3)ccc2F)CCSC(N)=N1` [Compound 502], 7.40; as for `Cc1nc(C(=O)Nc2ccc(F)c([C@]3(C)CCSC(N)=N3)c2)cs1` [Compound 505], 7.52. With `Cc1ncc(C(=O)Nc2ccc(F)c([C@]3(C)CCSC(N)=N3)c2)s1` [Compound 508], the pIC50 is 7.40. Take `C[C@@]1(c2cncc(NC(=O)c3ccc(Br)s3)c2)CCSC(N)=N1` [Compound 514]: the pIC50 was 6.62. As to `C[C@@]1(c2cc(NC(=O)c3cnc(Cl)cn3)ccc2Br)CCSC(N)=N1` [Compound 517], the pIC50 is 6.89. Still for that read-out and setting: as for `C[C@@]1(c2cc(NC(=O)c3cc4nccnc4s3)ccc2F)CCSC(N)=N1` [Compound 521], the figure is 6.74; as for `CC(=O)c1ccc(C(=O)Nc2ccc(F)c([C@]3(C)CCSC(N)=N3)c2)s1` [Compound 530], 7.05.

Regarding `C[C@@]1(c2cc(NC(=O)c3cnc(-c4ccsc4)cn3)ccc2F)CCSC(N)=N1` [Compound 537], the pIC50 was 7.70. Still for that read-out and setting: as for `Cc1cnc(C(=O)Nc2ccnc([C@]3(C)CCSC(N)=N3)c2)cn1` [Compound 551], the figure is 7.70; as for `C[C@@]1(c2cc(NC(=O)c3ccc(OCC(N)=O)cn3)ccc2F)CCSC(N)=N1` [Compound 559], 6.38. In the case of `Cc1cnc(C(=O)Nc2cccc([C@]3(C)CCSC(N)=N3)c2)cn1` [Compound 563], the pIC50 was 7.70. On the same count and under the same terms, next, `C[C@@]1(c2cc(NC(=O)c3ccc(OCC#CCN)cn3)ccc2F)CCSC(N)=N1` [Compound 566]: 6.74.

Staying with this experiment, now noted: Recombinant human BACE-1 7.4 nM, substrate peptide 18 nM, pH 5.0, 30° C., 3 hours; time-resolved fluorescence ratio 665/620; read-out: IC50 values (50% inhibitory concentration against the enzymatic activity).
Take `COc1cnc(C(=O)Nc2ccc(F)c([C@]3(C)CCSC(N)=N3)c2)c(OC)c1` [Compound 489]: the pIC50 is not below 6.00. On the same count and under the same terms, as for `C[C@@]1(c2cc(NC(=O)c3ccc(Cl)nn3)ccc2F)CCSC(N)=N1` [Compound 490], the figure is not below 6.00; as for `Cc1cnc(C(=O)Nc2ccc(Br)c(C3(C)CCSC(N)=N3)c2)cn1` (centres unmarked) [Compound 492], not below 6.00.

On to `CSc1ccc(C(=O)Nc2cncc([C@]3(C)CCSC(N)=N3)c2)s1` [Compound 493], for which the pIC50 is not below 6.00.

With `CCc1cc(C(=O)Nc2ccc(F)c([C@]3(C)CCSC(N)=N3)c2)on1` [Compound 495], the pIC50 is not below 6.00. Same read-out and setting: next, `C[C@@]1(c2cc(NC(=O)c3c[nH]nc3C3CC3)ccc2F)CCSC(N)=N1` [Compound 499]: not below 6.00; `Cc1noc(C)c1C(=O)Nc1ccc(F)c([C@]2(C)CCSC(N)=N2)c1` [Compound 500]: not below 6.00; `Cc1nc(C(=O)Nc2cncc([C@]3(C)CCSC(N)=N3)c2)c(C(F)(F)F)o1` [Compound 501]: not below 6.00.

`Cc1cccnc1C(=O)Nc1ccc(F)c([C@]2(C)CCSC(N)=N2)c1` [Compound 503]: the pIC50 is not below 6.00. For the compound `C[C@@]1(c2cncc(NC(=O)c3ccc(Cl)s3)c2)CCSC(N)=N1` [Compound 504], the pIC50 is not below 6.00. Consider `Cc1ncsc1C(=O)Nc1ccc(F)c([C@]2(C)CCSC(N)=N2)c1` [Compound 506], for which the pIC50 is not below 6.00. For `Cc1cc(C(=O)Nc2ccc(F)c([C@]3(C)CCSC(N)=N3)c2)ns1` [Compound 507], the pIC50 is not below 6.00. Turning to `Cc1ncc(C(=O)Nc2ccc(F)c([C@]3(C)CCSC(N)=N3)c2)s1` [Compound 508], the pIC50 was not below 6.00.

Regarding `C[C@@]1(c2cc(NC(=O)c3cnc(-c4ccc[nH]4)cn3)ccc2F)CCSC(N)=N1` [Compound 509], the pIC50 is not below 6.00. As for `C[C@@]1(c2cc(NC(=O)c3ncccc3F)ccc2F)CCSC(N)=N1` [Compound 510], the pIC50 was not below 6.00. On the same count and under the same terms, next, `C[C@@]1(c2cc(NC(=O)c3ncccc3F)ccc2F)CCSC(N)=N1` [Compound 511]: not below 6.00; `COc1cnc(C(=O)Nc2ccc(F)c([C@]3(C)CCSC(N)=N3)c2)c(F)c1` [Compound 512]: not below 6.00; `C[C@@]1(c2cncc(NC(=O)c3sccc3Br)c2)CCSC(N)=N1` [Compound 515]: not below 6.00. With `C[C@@]1(c2cncc(NC(=O)c3cc(Br)cs3)c2)CCSC(N)=N1` [Compound 516], the pIC50 was not below 6.00. As for `Cc1ccoc1C(=O)Nc1ccc(F)c([C@]2(C)CCSC(N)=N2)c1` [Compound 518], the pIC50 was not below 6.00. `C[C@@]1(c2cc(NC(=O)c3cnc(-c4nccs4)cn3)ccc2F)CCSC(N)=N1` [Compound 519]: the pIC50 is not below 6.00. For the compound `CC(C)c1nnsc1C(=O)Nc1ccc(F)c(C2(C)CCSC(N)=N2)c1` (centres unmarked) [Compound 520], the pIC50 is not below 6.00. The same measure, in the same setting: as for `COCc1ccc(C(=O)Nc2ccc(F)c([C@]3(C)CCSC(N)=N3)c2)o1` [Compound 522], the figure is not below 6.00; as for `Cc1noc(C)c1-c1cnc(C(=O)Nc2ccc(F)c([C@]3(C)CCSC(N)=N3)c2)cn1` [Compound 523], not below 6.00; as for `COc1cscc1C(=O)Nc1ccc(F)c([C@]2(C)CCSC(N)=N2)c1` [Compound 524], not below 6.00. Take `CCOc1cnc(C(=O)Nc2ccc(F)c([C@]3(C)CCSC(N)=N3)c2)c(OCC)c1` [Compound 528]: the pIC50 was not below 6.00. The same measure, in the same setting: as for `Cc1cc(C(=O)Nc2ccc(F)c([C@]3(C)CCSC(N)=N3)c2)oc1C` [Compound 529], the figure is not below 6.00.

Take `Cc1nc(-c2ccc(C(=O)Nc3ccc(F)c([C@]4(C)CCSC(N)=N4)c3)cc2)no1` [Compound 531]: the pIC50 was not below 6.00. For `Cc1ccc(C(=O)Nc2ccc(F)c([C@]3(C)CCSC(N)=N3)c2)s1` [Compound 532], the pIC50 is not below 6.00. For the compound `Cc1csc(C(=O)Nc2ccc(F)c([C@]3(C)CCSC(N)=N3)c2)c1` [Compound 533], the pIC50 was not below 6.00. On to `C[C@@]1(c2cc(NC(=O)c3cc4ccccc4[nH]3)ccc2F)CCSC(N)=N1` [Compound 536], for which the pIC50 is not below 6.00. In the case of `C[C@@]1(c2cc(NC(=O)c3cc4cccnc4s3)ccc2F)CCSC(N)=N1` [Compound 539], the pIC50 was not below 6.00.

As to `C[C@@]1(c2cc(NC(=O)c3cc4ccccc4o3)ccc2F)CCSC(N)=N1` [Compound 540], the pIC50 was not below 6.00. Take `Cc1cscc1-c1cnc(C(=O)Nc2ccc(F)c([C@]3(C)CCSC(N)=N3)c2)cn1` [Compound 541]: the pIC50 was not below 6.00. With `C[C@@]1(c2cc(NC(=O)c3cc4ccccc4s3)ccc2F)CCSC(N)=N1` [Compound 545], the pIC50 was not below 6.00.

Take `C[C@@]1(c2cc(NC(=O)c3cc4cc(C(F)(F)F)ccc4s3)ccc2F)CCSC(N)=N1` [Compound 546]: the pIC50 is not below 6.00. With `COc1cnc(C(=O)Nc2cncc([C@]3(C)CCSC(N)=N3)c2)cn1` [Compound 547], the pIC50 is not below 6.00.

Regarding `COc1cnc(C(=O)Nc2ccnc([C@]3(C)CCSC(N)=N3)c2)cn1` [Compound 548], the pIC50 is not below 6.00. With `COCCOc1cnc(C(=O)Nc2ccnc([C@]3(C)CCSC(N)=N3)c2)cn1` [Compound 549], the pIC50 was not below 6.00. As for `Cc1cnc(C(=O)Nc2cncc([C@]3(C)CCSC(N)=N3)c2)cn1` [Compound 550], the pIC50 was not below 6.00.

On to `C[C@@]1(c2cc(NC(=O)c3ccc(Cl)cn3)ccn2)CCSC(N)=N1` [Compound 552], for which the pIC50 was not below 6.00. `Cn1ccnc1C(=O)Nc1ccc(F)c([C@]2(C)CCSC(N)=N2)c1` [Compound 553]: the pIC50 is not below 6.00. `Cc1nc(C(=O)Nc2ccc(F)c([C@]3(C)CCSC(N)=N3)c2)c(C)o1` [Compound 554]: the pIC50 was not below 6.00. As for `COc1cnc(C(=O)Nc2cncc([C@]3(C)CCSC(N)=N3)c2)c(N)n1` [Compound 555], the pIC50 was not below 6.00. Consider `C#CCOc1cnc(C(=O)Nc2cncc([C@]3(C)CCSC(N)=N3)c2)cn1` [Compound 556], for which the pIC50 is not below 6.00. For the compound `C[C@@]1(c2cncc(NC(=O)c3cnc(OCCF)cn3)c2)CCSC(N)=N1` [Compound 557], the pIC50 is not below 6.00.

With `COc1cnc(C(=O)Nc2cncc([C@]3(C)CC(C)(C)SC(N)=N3)c2)c(N)n1` [Compound 558], the pIC50 was not below 6.00. In the case of `COc1cnc(C(=O)Nc2cncc([C@]3(C)CC(C)(C)SC(N)=N3)c2)cn1` [Compound 560], the pIC50 is not below 6.00. As for `C#CCOc1cnc(C(=O)Nc2cncc([C@]3(C)CC(C)(C)SC(N)=N3)c2)cn1` [Compound 561], the pIC50 was not below 6.00. Take `COCCOc1cnc(C(=O)Nc2cncc([C@]3(C)CC(C)(C)SC(N)=N3)c2)cn1` [Compound 562]: the pIC50 is not below 6.00. In the case of `COc1cnc(C(=O)Nc2cncc([C@]3(C)CCSC(N)=N3)c2)c(C)c1` [Compound 564], the pIC50 is not below 6.00.

Take `C[C@@]1(c2cccc(NC(=O)c3cnc(OCCF)cn3)c2)CCSC(N)=N1` [Compound 565]: the pIC50 is not below 6.00. The same measure, in the same setting: as for `C[C@@]1(c2cc(NC(=O)c3ccc(OCC#CCO)cn3)ccc2F)CCSC(N)=N1` [Compound 567], the figure is not below 6.00; as for `CC1(C)C[C@@](C)(c2cncc(NC(=O)c3cnc(OCCF)cn3)c2)N=C(N)S1` [Compound 568], not below 6.00; as for `CNCC#CCOc1ccc(C(=O)Nc2ccc(F)c([C@]3(C)CCSC(N)=N3)c2)nc1` [Compound 569], not below 6.00.

As to `CN(C)CC#CCOc1ccc(C(=O)Nc2ccc(F)c([C@]3(C)CCSC(N)=N3)c2)nc1` [Compound 570], the pIC50 was not below 6.00. Consider `COCC#CCOc1ccc(C(=O)Nc2ccc(F)c([C@]3(C)CCSC(N)=N3)c2)nc1` [Compound 571], for which the pIC50 was not below 6.00.

As for `C[C@@]1(c2cncc(NC(=O)c3ncc(Cl)cc3Cl)c2)CCSC(N)=N1` [Compound 572], the pIC50 was not below 6.00.

On to `C[C@@]1(c2cc(NC(=O)c3ccc(OCC#CCCl)cn3)ccc2F)CCSC(N)=N1` [Compound 573], for which the pIC50 was not below 6.00.
